According to patent US20150158868A1, “COMPOUNDS USEFUL AS INHIBITORS OF ATR KINASE” (Vertex Pharmaceuticals Incorporated, priority 2013, published 2015):

Key:
[1] = target: T1, ATR kinase (full-length ATR) (Homo sapiens, UniProt Q13535); assay: ATR Inhibition Assay (radioactive-phosphate incorporation); type: biochemical; conditions: Ki(app); 5 nM full-length ATR, 10 μM ATP, 25° C.
T1 construct: Assays were carried out at 25° C. in the presence of 5 nM full-length ATR
Experimental: Compounds were screened for their ability to inhibit ATR kinase using a radioactive-phosphate incorporation assay. Assays were carried out in a mixture of 50 mM Tris/HCl (pH 7.5), 10 mM MgCl2 and 1 mM DTT. Final substrate concentrations were 10 μM [γ-33P]ATP (3 mCi 33P ATP/mmol ATP, Perkin Elmer) and 800 μM target peptide (ASELPASQPQPFSAKKK).
Assays were carried out at 25° C. in the presence of 5 nM full-length ATR. An assay stock buffer solution was prepared containing all of the reagents listed above, with the exception of ATP and the test compound of interest. 13.5 μL of the stock solution was placed in a 96 well plate followed by addition of 2 μL of DMSO stock containing serial dilutions of the test compound (typically starting from a final concentration of 15 μM with 3-fold serial dilutions) in duplicate (final DMSO concentration 7%). The plate was pre-incubated for 10 minutes at 25° C. and the reaction initiated by addition of 15 μL [γ-33P]ATP (final concentration 10 μM).
The reaction was stopped after 24 hours by the addition of 30 μL 0.1M phosphoric acid containing 2 mM ATP. A multiscreen phosphocellulose filter 96-well plate (Millipore, Cat no. MAPHN0B50) was pretreated with 100 μL 0.2M phosphoric acid prior to the addition of 45 μL of the stopped assay mixture. The plate was washed with 5×200PL 0.2M phosphoric acid. After drying, 100 μL Optiphase ‘SuperMix’ liquid scintillation cocktail (Perkin Elmer) was added to the well prior to scintillation counting (1450 Microbeta Liquid Scintillation Counter, Wallac).
After removing mean background values for all of the data points, Ki(app) data were calculated from non-linear regression analysis of the initial rate data using the Prism software package (GraphPad Prism version 3.0cx for Macintosh, GraphPad Software, San Diego Calif., USA).
Compounds with a Ki value of <0.01 μM are marked with “+++.” Compounds with a Ki value >0.01 μM but <1 μM are marked with “++.” Compounds with a Ki value >1 μM but <5 μM are marked with “+.”

[2] = system: HCT116 colorectal cancer cells; assay: Cisplatin Sensitization Assay (96 h cell viability MTS); type: cell-based; conditions: concentration of compound required to reduce the IC50 of Cisplatin alone by at least 3-fold; HCT116, 96 h MTS
Experimental: Compounds can be screened for their ability to sensitize HCT116 colorectal cancer cells to Cisplatin using a 96 h cell viability (MTS) assay. […] Compounds and Cisplatin are then both added simultaneously to the cell media in 2-fold serial dilutions from a top final concentration of 10 μM as a full matrix of concentrations in a final cell volume of 200 μl, and the cells are then incubated at 37° C. in 5% CO2. After 96 h, 40 μl of MTS reagent (Promega G358a) is added to each well and the cells are incubated for 1 h at 37° C. in 5% CO2. Finally, absorbance is measured at 490 nm using a SpectraMax Plus 384 reader (Molecular Devices) and the concentration of compound required to reduce the IC50 of Cisplatin alone by at least 3-fold (to 1 decimal place) can be reported.
Compounds with a Cisplatin sensitization value of <0.02 μM are marked with “+++.” Compounds with a Cisplatin sensitization value >0.02 μM but <0.2 μM are marked with “++.” Compounds with a Cisplatin sensitization value >0.2 μM but <5 μM are marked with “+.”

[3] = target: T2, ATR kinase, in the presence of partner proteins ATRIP, CLK2 and TopBP1 (Homo sapiens, UniProt Q13535); assay: ATR-Complex Inhibition Assay (radioactive-phosphate incorporation); type: biochemical; conditions: Ki(app); 4 nM full-length ATR with ATRIP, CLK2 and TopBP1(A891-S1105), 10 μM ATP, 25° C.
T2 construct: in the presence of 4 nM full-length ATR, 40 nM full-length ATRIP
Experimental: Compounds were screened for their ability to inhibit ATR kinase, in the presence of partner proteins ATRIP, CLK2 and TopBP1, using a radioactive-phosphate incorporation assay. Assays were carried out in a mixture of 50 mM Tris/HCl (pH 7.5), 10 mM MgCl2 and 1 mM DTT. Final substrate concentrations were 10 μM [g-33P]ATP (3.5 μCi 33P ATP/nmol ATP, Perkin Elmer, Massachusetts, USA) and 800 μM target peptide (ASELPASQPQPFSAKKK, Isca Biochemicals, Cambridgeshire, UK).
Assays were carried out at 25° C. in the presence of 4 nM full-length ATR, 40 nM full-length ATRIP, 40 nM full-length CLK2 and 600 nM TopBP1(A891-S1105). An enzyme stock buffer solution was prepared containing all of the reagents listed above, with the exception of target peptide, ATP and the test compound of interest. This enzyme stock was pre-incubated for 30 minutes at 25° C. 8.5 μL of the enzyme stock solution was placed in a 96-well plate followed by addition of 5 μl of target peptide and 2 μL of DMSO stock containing serial dilutions of the test compound (typically starting from a final concentration of 1.5 μM with 2.5-fold serial dilutions) in duplicate (final DMSO concentration 7%). The plate was pre-incubated for 10 minutes at 25° C. and the reaction initiated by addition of 15 μL [g-33P]ATP (final concentration 10 μM).
The reaction was stopped after […] by the addition of 30 μL 0.3 M phosphoric acid containing 2 mM ATP. A phosphocellulose filter 96-well plate (Multiscreen HTS MAPHNOB50, Merck-Millipore, Massachusetts, USA) was pretreated with 100 μL 0.1 M phosphoric acid prior to the addition of 45 μL of the stopped assay mixture. The plate was washed with 5×200 μL 0.1 M phosphoric acid. […]
After removing mean background values for all of the data points, Ki(app) data were calculated from non-linear regression analysis of the initial rate data using the Prism software package (GraphPad Prism version 6.0c for Macintosh, GraphPad Software Inc., San Diego, USA). […]

T1 sequence (Q13535 whole entry): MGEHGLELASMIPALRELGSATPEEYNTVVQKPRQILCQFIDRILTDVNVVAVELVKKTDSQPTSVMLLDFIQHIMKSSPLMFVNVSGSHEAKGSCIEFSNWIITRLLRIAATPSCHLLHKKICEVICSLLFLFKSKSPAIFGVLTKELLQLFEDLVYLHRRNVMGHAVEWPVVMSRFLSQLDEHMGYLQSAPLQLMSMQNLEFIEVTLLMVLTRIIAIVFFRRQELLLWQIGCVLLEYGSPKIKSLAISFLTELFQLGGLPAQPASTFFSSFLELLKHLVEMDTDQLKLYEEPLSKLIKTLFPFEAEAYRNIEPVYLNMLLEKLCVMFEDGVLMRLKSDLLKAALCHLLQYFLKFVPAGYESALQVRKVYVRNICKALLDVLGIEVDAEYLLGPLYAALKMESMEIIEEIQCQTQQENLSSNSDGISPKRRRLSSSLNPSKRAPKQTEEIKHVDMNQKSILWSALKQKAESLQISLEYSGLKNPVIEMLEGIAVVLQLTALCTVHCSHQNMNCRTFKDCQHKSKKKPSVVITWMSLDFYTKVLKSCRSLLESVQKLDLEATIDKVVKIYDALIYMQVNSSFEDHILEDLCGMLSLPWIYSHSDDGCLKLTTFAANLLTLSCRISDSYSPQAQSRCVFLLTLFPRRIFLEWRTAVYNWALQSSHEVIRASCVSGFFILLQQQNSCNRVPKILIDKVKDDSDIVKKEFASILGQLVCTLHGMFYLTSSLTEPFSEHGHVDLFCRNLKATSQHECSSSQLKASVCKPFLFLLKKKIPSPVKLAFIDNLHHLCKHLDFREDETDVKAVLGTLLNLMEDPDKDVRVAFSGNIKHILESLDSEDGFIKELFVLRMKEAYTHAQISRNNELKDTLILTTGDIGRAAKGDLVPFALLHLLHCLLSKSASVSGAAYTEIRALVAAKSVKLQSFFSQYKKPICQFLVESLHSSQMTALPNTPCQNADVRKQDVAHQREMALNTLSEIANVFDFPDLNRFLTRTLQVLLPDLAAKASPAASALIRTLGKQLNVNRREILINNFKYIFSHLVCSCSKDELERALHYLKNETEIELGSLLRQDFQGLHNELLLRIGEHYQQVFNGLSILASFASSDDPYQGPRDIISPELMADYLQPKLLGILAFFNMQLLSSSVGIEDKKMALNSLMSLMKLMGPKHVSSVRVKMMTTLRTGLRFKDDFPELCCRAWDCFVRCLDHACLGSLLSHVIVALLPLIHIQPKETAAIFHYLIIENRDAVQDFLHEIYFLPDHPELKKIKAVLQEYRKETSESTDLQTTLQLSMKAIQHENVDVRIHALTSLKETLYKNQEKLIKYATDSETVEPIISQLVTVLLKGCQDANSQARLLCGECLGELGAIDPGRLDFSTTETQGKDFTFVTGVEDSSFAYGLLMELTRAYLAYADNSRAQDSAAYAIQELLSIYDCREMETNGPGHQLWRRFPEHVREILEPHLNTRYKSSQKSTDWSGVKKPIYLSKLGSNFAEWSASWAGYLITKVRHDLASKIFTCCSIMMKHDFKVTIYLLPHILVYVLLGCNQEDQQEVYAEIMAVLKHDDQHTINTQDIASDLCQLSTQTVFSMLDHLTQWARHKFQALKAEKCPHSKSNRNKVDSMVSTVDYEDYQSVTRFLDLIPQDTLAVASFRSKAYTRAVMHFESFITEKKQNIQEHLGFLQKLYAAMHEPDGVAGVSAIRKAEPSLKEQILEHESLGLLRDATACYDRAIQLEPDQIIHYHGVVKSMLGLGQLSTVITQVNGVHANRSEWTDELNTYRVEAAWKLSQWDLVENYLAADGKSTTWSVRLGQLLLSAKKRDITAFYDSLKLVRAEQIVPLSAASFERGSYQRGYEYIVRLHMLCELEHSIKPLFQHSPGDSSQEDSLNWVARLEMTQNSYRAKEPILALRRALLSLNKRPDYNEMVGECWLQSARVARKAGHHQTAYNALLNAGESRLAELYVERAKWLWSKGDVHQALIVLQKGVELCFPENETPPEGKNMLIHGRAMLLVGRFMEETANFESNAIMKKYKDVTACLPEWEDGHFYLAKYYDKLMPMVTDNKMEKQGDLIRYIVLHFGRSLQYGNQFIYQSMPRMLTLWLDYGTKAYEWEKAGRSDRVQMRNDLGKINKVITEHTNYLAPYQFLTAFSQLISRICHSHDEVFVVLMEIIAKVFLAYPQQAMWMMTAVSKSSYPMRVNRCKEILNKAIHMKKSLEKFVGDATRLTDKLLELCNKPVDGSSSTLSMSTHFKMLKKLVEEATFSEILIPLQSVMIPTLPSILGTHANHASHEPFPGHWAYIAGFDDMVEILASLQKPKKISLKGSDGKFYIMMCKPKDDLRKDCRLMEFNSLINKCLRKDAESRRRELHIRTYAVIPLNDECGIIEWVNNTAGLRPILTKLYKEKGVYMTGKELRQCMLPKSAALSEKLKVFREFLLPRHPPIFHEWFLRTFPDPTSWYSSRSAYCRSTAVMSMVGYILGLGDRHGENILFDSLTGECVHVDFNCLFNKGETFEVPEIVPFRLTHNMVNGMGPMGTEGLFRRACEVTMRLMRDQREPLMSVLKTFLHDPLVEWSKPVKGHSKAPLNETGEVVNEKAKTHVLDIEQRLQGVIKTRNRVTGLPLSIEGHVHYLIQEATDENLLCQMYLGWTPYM
T2 sequence (Q13535 whole entry): as above
T2 sequence (Q8WXE1 whole entry partner): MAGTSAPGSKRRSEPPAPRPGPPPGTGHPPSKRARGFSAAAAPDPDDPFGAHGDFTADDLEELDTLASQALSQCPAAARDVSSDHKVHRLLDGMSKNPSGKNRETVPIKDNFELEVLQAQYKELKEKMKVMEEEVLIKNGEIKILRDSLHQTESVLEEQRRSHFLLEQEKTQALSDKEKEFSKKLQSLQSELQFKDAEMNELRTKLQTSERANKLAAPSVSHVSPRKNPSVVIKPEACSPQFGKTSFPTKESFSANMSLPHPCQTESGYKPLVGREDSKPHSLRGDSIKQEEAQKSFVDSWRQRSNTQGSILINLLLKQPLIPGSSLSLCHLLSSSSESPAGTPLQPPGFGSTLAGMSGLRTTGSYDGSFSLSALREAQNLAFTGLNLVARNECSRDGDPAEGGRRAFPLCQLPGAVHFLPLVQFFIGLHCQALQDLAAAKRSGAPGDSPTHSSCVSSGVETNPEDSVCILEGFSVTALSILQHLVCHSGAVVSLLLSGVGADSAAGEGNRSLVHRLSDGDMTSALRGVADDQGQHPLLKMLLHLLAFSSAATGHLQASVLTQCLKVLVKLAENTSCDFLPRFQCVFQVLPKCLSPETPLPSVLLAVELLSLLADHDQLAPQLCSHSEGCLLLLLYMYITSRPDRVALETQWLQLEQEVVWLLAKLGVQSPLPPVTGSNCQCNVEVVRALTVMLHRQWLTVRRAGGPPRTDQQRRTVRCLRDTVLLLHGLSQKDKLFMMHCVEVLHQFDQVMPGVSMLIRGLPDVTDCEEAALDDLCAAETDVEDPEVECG
T2 sequence (Q92547 978-1192 partner limits assumed): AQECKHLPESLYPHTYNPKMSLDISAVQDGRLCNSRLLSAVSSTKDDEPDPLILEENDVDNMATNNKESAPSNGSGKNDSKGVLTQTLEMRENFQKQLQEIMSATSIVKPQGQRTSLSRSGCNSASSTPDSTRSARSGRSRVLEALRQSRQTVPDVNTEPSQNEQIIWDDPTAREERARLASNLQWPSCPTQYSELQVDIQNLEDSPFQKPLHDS

Compound	Ki [1] [nM]	Cisplatin Sensitization Assay [2]	Ki [3] [nM]
CN1CCN(C(=O)C2CCN(c3c(F)cncc3NC(=O)c3c(N)nn4ccccc34)CC2)CC1 [I-B-3, 2-amino-N-(5-fluoro-4-(4-(4-methylpiperazine-1-carbonyl)piperidin-1-yl)pyridin-3-yl)pyrazolo[1,5-a]pyridine-3-carboxamide]	1000 to 5000	+ (Compounds with a Cisplatin sensitization value >0.2 μM but <5 μM)	< 10
CCOc1ccncc1NC(=O)c1c(N)nn2ccccc12 [I-B-1, 2-amino-N-(4-ethoxypyridin-3-yl)pyrazolo[1,5-a]pyridine-3-carboxamide]	10 to 1000	+++ (Compounds with a Cisplatin sensitization value of <0.02 μM)	< 10
CN1CCC(Oc2ccncc2NC(=O)c2c(N)nc3cccnn23)CC1 [I-A-1, 2-amino-N-(4-((1-methylpiperidin-4-yl)oxy)pyridin-3-yl)imidazo[1,2-b]pyridazine-3-carboxamide]	10 to 1000	++ (Compounds with a Cisplatin sensitization value >0.02 μM but <0.2 μM)	< 10
CN1CCC(Oc2ccncc2NC(=O)c2c(N)nc3ccc(C(F)(F)F)nn23)CC1 [I-A-2, 2-amino-N-(4-((1-methylpiperidin-4-yl)oxy)pyridin-3-yl)-6-(trifluoromethyl)imidazo[1,2-b]pyridazine-3-carboxamide]	10 to 1000	++ (Compounds with a Cisplatin sensitization value >0.02 μM but <0.2 μM)	
CN1CCN(C(=O)C2CCN(c3c(F)cncc3NC(=O)c3c(N)nc4cccnn34)CC2)CC1 [I-A-3, 2-amino-N-(5-fluoro-4-(4-(4-methylpiperazine-1-carbonyl)piperidin-1-yl)pyridin-3-yl)imidazo[1,2-b]pyridazine-3-carboxamide]	10 to 1000	+++ (Compounds with a Cisplatin sensitization value of <0.02 μM)	
